# Assay results taken from patent US20080253972A1, “Aqueous/alcoholic deodorant composition comprising a water-soluble zinc salt and salicylic acid” (priority 2006, published 2008).
# Test system: Corynebacterium xerosis
# Experiment: Quantitative determination of bactericidal activity with regard to microorganisms involved in axillary odors
# Format: cell-based
# Details: 24 hours contact, carrier gel pH 7, Log reduction classes
# Source text: The test described here makes possible the quantitative determination of the bactericidal activity of an active principle (i.e.: zinc salicylate/salicylic acid or triclosan) conveyed in an appropriate carrier which is neutral with regard to the bacteria tested. The bacteria studied were microorganisms under optimum growth conditions, namely microorganisms of the Corynebacterium xerosis type (Institut Pasteur Collection No. 5216) cultured on a gradient of tryptocasein soybean agar.
# The day before the test, 32 g of tryptocasein soybean broth was placed in a sample tube and incubated at 35° C. The day of the test, 4 g of the test composition was added and the mixture was homogenized using a Vortex render.
# A growth control without product was also prepared under the same conditions in order to confirm that the microorganisms are under favorable growth conditions throughout the duration of the test. […]
# The colonies on the dishes comprising more than 20 and less than 200 colonies were counted. […]
# The following two carrier gels A and B were prepared (amounts expressed as percentages by weight): […]
# The bactericidal activity of each of formulations 9 and 10 (see below) with regard to the Corynebacterium xerosis strain was measured and compared to a formulation devoid of active principle.
smiles,measurement,value
"Oc1cc(Cl)ccc1Oc1ccc(Cl)cc1Cl [Triclosan, 2,4,4′-trichloro-2′-hydroxydiphenyl ether]",Effectiveness at 24 hours with respect to the gel devoid of active principle,Excellent
